{
  "source": "patent US20240000074A1",
  "about": "“LOW DRIFT, RAINFASTNESS, HIGH SPREADING, HIGH UPTAKE AND ULV TANK MIX ADJUVANT FORMULATION” (BAYER AKTIENGESELLSCHAFT, priority 2020, published 2024)",
  "test_system": "Apple leaf cuticles",
  "assay": "Apple cuticle penetration test (SOFU, simulation of foliar uptake)",
  "assay_type": "in vitro ADME",
  "conditions": "Spray volume 650 l/ha; no additives",
  "from_the_text": "The cuticle penetration test is a further developed and adapted version of the test method SOFU (simulation of foliar uptake) originally described by Schonherr and Baur (Schonherr, J., Baur, P. (1996), Effects of temperature, surfactants and other adjuvants on rates of uptake of organic compounds. In: The plant cuticle—an integrated functional approach, 134-155. Kerstiens, G. (ed.), BIOS Scientific publisher, Oxford); it is well suited for systematic and mechanistic studies on the effects of formulations, adjuvants and solvents on the penetration of agrochemicals.\nApple leaf cuticles were isolated from leaves taken from trees growing in an orchard as described by Schönherr and Riederer (Schönherr, J., Riederer, M. (1986), Plant cuticles sorb lipophilic compounds during enzymatic isolation. Plant Cell Environ. 9, 459-466). Only the astomatous cuticular membranes of the upper leaf surface lacking stomatal pores were obtained. Discs having diameters of 18 mm were punched out of the leaves and infiltrated with an enzymatic solution of pectinase and cellulase. […] After storage for about four weeks the permeability of the cuticles reaches a constant level and the cuticular membranes are ready for the use in the penetration test. […]\nAn autosampler took aliquots of the acceptor in regular intervals and the content of active ingredient is determined by HPLC (DAD or MS). […]",
  "data": [
    {"smiles": "CCOC(=O)OC1=C(c2cc(C)ccc2C)C(=O)N[C@]12CC[C@@H](OC)CC2", "note": "[spirotetramate]", "values": [
      {"measurement": "Penetration rate of spirotetramate After 48 hours", "result": 0, "unit": "%"}
    ]},
    {"smiles": "CC(C)(C)C(O)(CCc1ccc(Cl)cc1)Cn1cncn1", "note": "(centres unmarked) [tebuconazole]", "values": [
      {"measurement": "Penetration rate of tebuconazole After 24 hours", "result": 4, "unit": "%"}
    ]}
  ]
}
